Results: PubChem BioAssay (NCI)
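Exposure lasted 48 hours, with cells grown in 96-well plates and compounds tested at five concentrations. The concentration for 50% growth inhibition is given as GI50. TGI: concentration producing complete growth inhibition.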

Legend:
Experiment in all cases: growth of human tumour cells (NCI), 48 h
MDA-MB-468 breast = test system: MDA-MB-468 breast
SF-295 CNS = test system: SF-295 CNS
A498 renal = test system: A498 renal
NCI-H522 lung = test system: NCI-H522 lung
HOP-92 NSCLC = test system: HOP-92 NSCLC
COLO 205 colon = test system: COLO 205 colon
NCI/ADR-RES ovarian = test system: NCI/ADR-RES ovarian
MDA-MB-231 breast = test system: MDA-MB-231 breast
UO-31 renal = test system: UO-31 renal
OVCAR-5 ovarian = test system: OVCAR-5 ovarian
MOLT-4 leukemia = test system: MOLT-4 leukemia
OVCAR-4 ovarian = test system: OVCAR-4 ovarian
MCF7 breast = test system: MCF7 breast
HOP-62 NSCLC = test system: HOP-62 NSCLC
SK-MEL-5 melanoma = test system: SK-MEL-5 melanoma
DU-145 prostate = test system: DU-145 prostate
U251 CNS = test system: U251 CNS
OVCAR-3 ovarian = test system: OVCAR-3 ovarian
M14 melanoma = test system: M14 melanoma
SN12C renal = test system: SN12C renal
RXF 393 renal = test system: RXF 393 renal
HCT-15 colon = test system: HCT-15 colon
HT29 colon = test system: HT29 colon
K-562 leukemia = test system: K-562 leukemia
LOX IMVI melanoma = test system: LOX IMVI melanoma
CCRF-CEM leukemia = test system: CCRF-CEM leukemia
T-47D breast = test system: T-47D breast
SNB-75 CNS = test system: SNB-75 CNS
A549 NSCLC = test system: A549 NSCLC

CC(C)N=C([Se])NC(=O)c1ccccc1
GI50 (MDA-MB-468 breast): 1.72 µM
TGI (MDA-MB-468 breast): 3.61 µM
GI50 (SF-295 CNS): 1.86 µM
TGI (SF-295 CNS): 5.21 µM
GI50 (A498 renal): 2.85 µM
TGI (A498 renal): 8.02 µM
GI50 (NCI-H522 lung): 1.64 µM
TGI (NCI-H522 lung): 3.17 µM
GI50 (HOP-92 NSCLC): 1.95 µM
TGI (HOP-92 NSCLC): 4.36 µM
GI50 (COLO 205 colon): 2.49 µM
TGI (COLO 205 colon): 6.46 µM
GI50 (NCI/ADR-RES ovarian): 2.12 µM
TGI (NCI/ADR-RES ovarian): 4.89 µM
GI50 (MDA-MB-231 breast): 2.67 µM
TGI (MDA-MB-231 breast): 6.49 µM
GI50 (UO-31 renal): 1.64 µM
TGI (UO-31 renal): 3 µM
GI50 (OVCAR-5 ovarian): 1.97 µM
TGI (OVCAR-5 ovarian): 3.72 µM
GI50 (MOLT-4 leukemia): 2.33 µM
TGI (MOLT-4 leukemia): 6.07 µM
GI50 (OVCAR-4 ovarian): 1.75 µM
TGI (OVCAR-4 ovarian): 3.14 µM
GI50 (MCF7 breast): 1.7 µM
TGI (MCF7 breast): 3.66 µM
GI50 (HOP-62 NSCLC): 2.03 µM
TGI (HOP-62 NSCLC): 5.19 µM
GI50 (SK-MEL-5 melanoma): 1.88 µM
TGI (SK-MEL-5 melanoma): 3.67 µM
GI50 (DU-145 prostate): 1.95 µM
TGI (DU-145 prostate): 3.6 µM
GI50 (U251 CNS): 1.86 µM
TGI (U251 CNS): 3.51 µM
GI50 (OVCAR-3 ovarian): 1.97 µM
TGI (OVCAR-3 ovarian): 3.57 µM
GI50 (M14 melanoma): 1.84 µM
TGI (M14 melanoma): 3.65 µM
GI50 (SN12C renal): 1.82 µM
TGI (SN12C renal): 3.29 µM
GI50 (RXF 393 renal): 1.88 µM
TGI (RXF 393 renal): 3.68 µM
GI50 (HCT-15 colon): 1.85 µM
TGI (HCT-15 colon): 3.63 µM
GI50 (HT29 colon): 2.34 µM
TGI (HT29 colon): 5.99 µM
GI50 (K-562 leukemia): 2.76 µM
TGI (K-562 leukemia): 8.45 µM
GI50 (LOX IMVI melanoma): 1.85 µM
TGI (LOX IMVI melanoma): 3.94 µM
GI50 (CCRF-CEM leukemia): 3.05 µM
TGI (CCRF-CEM leukemia): 10.8 µM
GI50 (T-47D breast): 1.98 µM
TGI (T-47D breast): 4.52 µM
GI50 (SNB-75 CNS): 1.69 µM
TGI (SNB-75 CNS): 3.41 µM
GI50 (A549 NSCLC): 3.11 µM
TGI (A549 NSCLC): 34.8 µM
